This passage reports TGI and GI50 results from PubChem BioAssay (NCI).

“And” between values parts separate entries of the source, which are not always exact repeats. Equal entries are not always repeated.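 96-well plates; 48 h exposure; 5 concentrations. Endpoints by linear interpolation between flanking doses. Not reached: highest tested concentration assigned. GI50: concentration for 50% inhibition of growth. The concentration for full growth arrest is given as TGI.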

Test systems include DMS 273 small cell lung; SNB-78 CNS; RXF-631 renal; NCI/ADR-RES ovarian; HS 578T breast; BT-549 breast; T-47D breast; MDA-N.
Assay in all cases: inhibition of tumour cell growth, NCI panel, 48 h

For the molecule `Cc1cc(N(CCC#N)CCC#N)ccc1N=Nc1ccc([N+](=O)[O-])cc1`, the TGI is 44.4 µM in the test on DMS 273 small cell lung and over 100 µM in the test on SNB-78 CNS.
For `Cc1cc(C)c2c(c1C)CN1CN2Cc2c(C)c(C)cc(C)c21`, the TGI in the test on DMS 273 small cell lung and in the test on SNB-78 CNS was over 100 µM each time.
For the molecule `CC(=O)OCC1OC(n2cnc3c(I)nc(I)nc32)C(OC(C)=O)C1OC(C)=O` (stereo not given), the figures for the TGI in the test on DMS 273 small cell lung and in the test with RXF-631 renal were 20.2 µM and 34.9 µM, respectively.
Regarding `CC1(C)CC[C@]2(C(=O)O)CCC3(C)C(=CCC4[C@@]5(C)CC[C@H](OC6OCC(O)C(O)C6OC6OC(CO)C(O)C(O)C6O)C(C)(C)C5CC[C@]43C)C2C1` (stereo not given in full), the TGI worked out at 3.93 µM in the test with DMS 273 small cell lung, 5.04 µM in the test with SNB-78 CNS and 3.21 µM in the test with RXF-631 renal.
Turning to `Nc1ncn([C@@H]2C=C(CO)C(O)C2O)c(=O)n1` (stereo not given in full), the TGI in the test on DMS 273 small cell lung, in the test on SNB-78 CNS and in the test on RXF-631 renal was over 100 µM each time.
`CC/C(=C(/CC)c1ccc(OP(=O)([O-])[O-])cc1)c1ccc(OP(=O)([O-])[O-])cc1.N.N.N.N.[Pt+4].[Pt+4]`: in the test with DMS 273 small cell lung, the GI50 was 2.17 µM and the TGI was 18.9 µM. In addition, in the test on SNB-78 CNS, the GI50 was 2.3 µM and the TGI was determined as 6.81 µM.
For `CCN1CCC(O)(c2ccccc2)C(C(=O)c2ccccc2)C1` (stereo not given), the results for the TGI in the test with DMS 273 small cell lung and in the test on SNB-78 CNS were over 100 µM and 54.1 µM, respectively.
Turning to `O=[N+]([O-])c1ccc(N=Nc2c(O)[nH]c3ccc(Br)cc23)c([N+](=O)[O-])c1`, the TGI in the test on SNB-78 CNS is over 100 µM.
In the case of `COc1ccc(C(=O)Nc2ccccc2C#N)cc1`, the TGI in the test on DMS 273 small cell lung and with SNB-78 CNS was over 100 µM in each case.
Turning to `COc1ccc(C(=O)Nc2ccccc2)cc1[N+](=O)[O-]`, the TGI in the test with DMS 273 small cell lung, in the test with SNB-78 CNS and in the test with RXF-631 renal was over 100 µM throughout.
For `CCOC(=O)C1=C(O)CSC1=Nc1ccc(N=C2SCC(O)=C2C(=O)OCC)cc1`, the results for the TGI in the test on DMS 273 small cell lung and in the test with SNB-78 CNS were 42.8 µM and over 100 µM, respectively.
In the case of `COc1ccc(Nc2nc3c(N)cc(C(F)(F)F)cc3nc2-c2ccccc2)cc1`, the TGI in the test on DMS 273 small cell lung, in the test on SNB-78 CNS and in the test with RXF-631 renal was over 100 µM throughout.
As to `Clc1ccc(C2=NN(c3ccccc3)C3c4cc(Br)ccc4OCC23)cc1` (stereo not given), the TGI with DMS 273 small cell lung, in the test with SNB-78 CNS and with RXF-631 renal was over 100 µM throughout.
`COC(=O)C12C3C=CC(O3)C1C1C=CC2O1` (stereo not given) showed a TGI with DMS 273 small cell lung of over 100 µM.
As to `S=c1nc(/C=C/c2ccc(Cl)c(Cl)c2)[nH][nH]1`, the GI50 in the test on NCI/ADR-RES ovarian was over 100 µM; in the test on HS 578T breast, over 100 µM; in the test with BT-549 breast, 31.3 µM; in the test with T-47D breast it was 77.1 µM. Also, the TGI in the test on NCI/ADR-RES ovarian, in the test on DMS 273 small cell lung, with HS 578T breast, with BT-549 breast and with T-47D breast was over 100 µM each time.
As for `O=c1[nH]cnc2c1nnn2C1C=C(CO)C(O)C1O` (stereo not given), the TGI in the test with DMS 273 small cell lung was 60.1 µM; in the test on SNB-78 CNS it was over 100 µM.
In the case of `COc1cc(C2c3cc4c(cc3[C@@H](OCCN)[C@H]3COC(=O)C23)OCO4)cc(OC)c1O` (stereo not given in full), the TGI in the test on SNB-78 CNS was over 58.9 µM.
For the molecule `COC(=O)C1(c2ccc(OC)cc2)NC(c2ccccc2)C2C(=O)N(c3ccc(OC)cc3)C(=O)C21` (stereo not given), the TGI in the test on DMS 273 small cell lung, in the test on SNB-78 CNS and with RXF-631 renal was over 100 µM throughout.
In the case of `Cc1ccc(C)c(NC(=O)CCC(=O)CC(=O)C(C)(C)C)c1`, the TGI in the test on DMS 273 small cell lung and with SNB-78 CNS was over 100 µM throughout.
Turning to `COc1ccccc1NS(=O)(=O)c1cc(C(C)(C)C)ccc1OCCOc1ccc(C(C)(C)C)cc1S(=O)(=O)Nc1ccccc1OC`, the TGI in the test on DMS 273 small cell lung and with SNB-78 CNS was over 100 µM in each case.
In the case of `Nc1cc2c3c(cccc3c1)C(=O)N(CCN1CCN(CCN3C(=O)c4cccc5cc(N)cc(c45)C3=O)CC1)C2=O`, the TGI in the test with DMS 273 small cell lung and in the test on RXF-631 renal was over 100 µM in each case.
Consider `COC1C2c3ccccc3C(C#N)(Cc3ccc4c(c32)OCO4)N1C(=O)c1ccccc1` (stereo not given), for which the TGI with DMS 273 small cell lung was 98.3 µM; with SNB-78 CNS, over 100 µM; in the test with RXF-631 renal it was over 100 µM.
Consider `CCN1N=CSC12C(=O)N(c1ccccc1)C(=O)N2c1ccccc1` (stereo not given), for which the TGI with SNB-78 CNS and in the test with RXF-631 renal was over 100 µM throughout.
On to `CCOC(=O)C12CN(C34CC5CC(CC(C5)C3)C4)CC(C(=O)OCC)(C1=O)C(c1ccccc1)OC2c1ccccc1` (stereo not given), for which the TGI with DMS 273 small cell lung and in the test with SNB-78 CNS was over 100 µM in each case.
As to `Cn1c(=O)c2c(nc3n2C(CCl)CO3)n(C)c1=O` (stereo not given), the TGI in the test on DMS 273 small cell lung, in the test with SNB-78 CNS and with RXF-631 renal was over 100 µM in each case.
`CC(=O)NNc1nc(C)c(C(/C=C/c2ccc3c(c2)OCO3)=N/NC(=O)c2ccncc2)s1`: the TGI with NCI/ADR-RES ovarian, with HS 578T breast, in the test on MDA-N, with BT-549 breast and in the test with T-47D breast was over 100 µM in each case.
As for `COc1ccc(C(NCCNC(c2ccc(OC)c(OC)c2)c2cc3c(cc2O)OCO3)c2cc3c(cc2O)OCO3)cc1OC` (stereo not given), the TGI is 8.27 µM with NCI/ADR-RES ovarian; over 100 µM with HS 578T breast; 3.58 µM in the test with MDA-N; 6.22 µM with BT-549 breast; 13.1 µM with T-47D breast.
On to `C=C1C(=O)C23C(O)C1CCC2C12CO[C@]3(O)[C@@H](O)C1C(C)(C)CCC2O` (stereo not given in full), for which the results for the TGI in the test on DMS 273 small cell lung, in the test with SNB-78 CNS and in the test with RXF-631 renal were 28.1 µM, 32.8 µM and 34.5 µM, respectively.
With `O=C(O)Cc1ccccc1`, the GI50 with NCI/ADR-RES ovarian, in the test with HS 578T breast, in the test on MDA-N and in the test with T-47D breast was over 1000 µM each time. In addition, the TGI in the test on NCI/ADR-RES ovarian was over 2000 µM; in the test on HS 578T breast it was > 1000 µM and 1780 µM; with MDA-N it was over 2000 µM; in the test on BT-549 breast it was over 2000 µM; in the test on T-47D breast, over 2000 µM.
In the test on SNB-78 CNS, `CCCCCNC(=O)C1C(=O)N(CCCCC)C(=O)/C1=N\N` (stereo not given) registered a TGI of 60 µM.
Take `CC1=C(C(=O)Nc2cc(F)c(F)cc2F)C(c2cccc([N+](=O)[O-])c2)C(C(=O)Nc2ccccc2C(F)(F)F)=C(C)N1` (stereo not given): the TGI was found to be 59.2 µM with SNB-78 CNS and 49.3 µM with RXF-631 renal.
`NC(=NCc1ccccc1)N/N=C\c1ccnc2ccccc12`: the TGI came out at 35.6 µM with NCI/ADR-RES ovarian; 49.4 µM in the test with HS 578T breast; 26.6 µM in the test on MDA-N; 18.6 µM with BT-549 breast; 5.87 µM in the test on T-47D breast.
As for `CC1(C)CC(C2CC(C)(C)CC(C)(C)[C@H]2O)[C@@H](O)C(C)(C)C1` (stereo not given in full), in the test with DMS 273 small cell lung, the TGI was over 100 µM.
Regarding `Nc1ccc(C(=O)O)c2[nH]c3ccccc3c(=O)c12`, the TGI with DMS 273 small cell lung and in the test on SNB-78 CNS was over 100 µM each time.
Regarding `O=C1NCC2=C1CCC1c3ccccc3CCN21` (stereo not given), the TGI in the test with DMS 273 small cell lung and in the test on SNB-78 CNS was over 100 µM throughout.
For `O=[N+]([O-])c1ccc([I+]c2ccccc2)cc1`, the GI50 in the test with NCI/ADR-RES ovarian is 2.25 µM; in the test on HS 578T breast, 2 µM; in the test with BT-549 breast it was 1.63 µM; with T-47D breast, 1.3 µM. The TGI in the test with NCI/ADR-RES ovarian is > 29.1 µM and 6.92 µM; in the test on HS 578T breast it was 13.5 µM and 5.85 µM; in the test with MDA-N, 20.9 µM; in the test with BT-549 breast, 8.12 µM and 3.09 µM; in the test with T-47D breast, 26 µM and 5.04 µM.
Regarding `CC1(C)OCC(C2OC(On3nnc4ccc(Cl)cc43)C3OC(C)(C)OC23)O1` (stereo not given), the TGI in the test on NCI/ADR-RES ovarian, in the test on HS 578T breast, with MDA-N, in the test on BT-549 breast and with T-47D breast was over 100 µM each time.
As for `O=C1c2cccnc2-c2nc(-c3ccccc3)cc3c2c1nc1ccccc13`, the GI50 with NCI/ADR-RES ovarian is 11.9 µM; in the test on HS 578T breast, 16.6 µM; with MDA-N, 1.74 µM; in the test on BT-549 breast it was 5.15 µM; with T-47D breast it was 5.35 µM. Further, the TGI in the test on NCI/ADR-RES ovarian was 32.7 µM; in the test with HS 578T breast it was 42.9 µM; with MDA-N, 3.46 µM; in the test with BT-549 breast, 21.3 µM; in the test with T-47D breast, 44.3 µM.
Regarding `COc1ccc(C=O)c(N(C)C(=O)C(C)(C)C)c1`, the TGI in the test on DMS 273 small cell lung, in the test with SNB-78 CNS and with RXF-631 renal was over 100 µM in each case.
`Cc1ccc(S(=O)(=O)OC(C=O)C(O)C(O)COC(c2ccccc2)(c2ccccc2)c2ccccc2)cc1` (stereo not given): the figures for the TGI in the test on DMS 273 small cell lung and in the test with RXF-631 renal were 37.9 µM and 10.5 µM, respectively.
Consider `COC(=O)CC(CC(=O)C(=O)OC)C(=O)OC` (stereo not given), for which, in the test with SNB-78 CNS, the TGI is over 100 µM.
Take `O=C1/C(=C/c2ccccc2Cl)COc2ccccc21`: the values for the TGI with DMS 273 small cell lung, in the test on SNB-78 CNS and in the test on RXF-631 renal were 31.6 µM, 41.3 µM and 36.3 µM, respectively.
In the same order, the values of `Cc1ccc(NC(=O)CCC(=O)C2CC(=O)CCC2=O)cc1C` (stereo not given) are over 100 µM, over 100 µM and over 100 µM.
